Results published in patent US20110245284A1, “Alkoxy- and Alkylthio-Substituted Anilinopyrimidines” (Bayer CropScience AG, priority 2008, published 2011).

Columns and labels:
Venturia inaequalis = experiment: Venturia test (apple) / protective; assay type: in vivo; details: 240 h, active compound concentration 100 ppm, evaluation 10 days after inoculation, read-out: efficacy
Protocol: After the spray coating has dried on, the plants are inoculated with an aqueous conidia suspension of the apple scab pathogen Venturia inaequalis and then remain for 1 day in an incubation cabinet at about 20° C. and 100% relative atmospheric humidity.

Cochliobolus miyabeanus = experiment: Cochliobolus test (rice) / protective; details: Bipolaris oryzae, in Oryza sativa, 96 h, read-out: efficacy
Protocol: Cochliobolus Test (Rice)/Protective • Solvent: 28.5 parts by weight of acetone • Emulsifier: 1.5 parts by weight of alkylaryl polyglycol ether
1 day after the treatment, the plants are inoculated with an aqueous spore suspension of Cochliobolus miyabeanus. The plants are then placed in a greenhouse at 100% relative atmospheric humidity and 25° C.
Evaluation is carried out 4 days after the inoculation.

Pyrenophora teres = Pyrenophora teres test (barley) / protective; assay type: in vivo; details: 192 h, active compound concentration 500 ppm, evaluation 8 days after inoculation, read-out: efficacy
Protocol: After the spray coating has dried on, the plants are sprayed with a spore suspension of Pyrenophora teres. The plants remain in an incubation cabinet for 48 hours at 20° C. and 100% relative atmospheric humidity.

Alternaria solani = experiment: Alternaria test (tomato) / protective; assay type: in vivo; details: 72 h, active compound concentration 100 ppm, evaluation 3 days after inoculation, read-out: efficacy
Protocol: The plants are then placed in an incubation cabinet at about 20° C. and 100% relative atmospheric humidity.

Rhizoctonia solani = experiment: Rhizoctonia test (rice) / protective; assay type: in vivo; details: 96 h, active compound concentration 250 ppm, evaluation 4 days after inoculation, read-out: efficacy
Pyricularia oryzae = experiment: whole plant or invertebrate; assay type: in vivo; details: 120 h, read-out: efficacy
Leptosphaeria nodorum = Leptosphaeria nodorum test (wheat) / protective; assay type: in vivo; details: Parastagonospora nodorum, active compound concentration 500 ppm, evaluation 7-9 days after inoculation, read-out: efficacy
Protocol: Thereafter, the plants are placed in a greenhouse at 90% relative atmospheric humidity and a temperature of 22° C.

[1] = logP by LC-MS on reversed-phase columns (C 18), method [b], acidic range pH 2.7; assay type: physicochemical; details: pH 2.7, log p
Protocol: (§1) The logP values were determined in accordance with EEC Directive 79/831 Annex V.A8 by HPLC (High Performance Liquid Chromatography) on reversed-phase columns (C 18), using the methods below:
[b] The LC-MS determination in the acidic range is carried out at pH 2.7 using the mobile phases 0.1% aqueous formic acid and acetonitrile (contains 0.1% formic acid), linear gradient from 10% acetonitrile to 95% acetonitrile.

Sphaerotheca fuliginea = experiment: Sphaerotheca test (cucumber) / protective; assay type: in vivo; details: Podosphaera fuliginea, 168 h, active compound concentration 500 ppm, evaluation 7 days after inoculation, read-out: efficacy
Protocol: The plants are subsequently placed in a greenhouse at 70% relative atmospheric humidity and a temperature of 23° C.

[2] = logP by LC-MS on reversed-phase columns (C 18), method [c], neutral range pH 7.8; assay type: physicochemical; details: pH 7.8
Protocol: as §1
[c] The LC-MS determination in the neutral range is carried out at pH 7.8 using the mobile phases 0.001 molar aqueous ammonium bicarbonate solution and acetonitrile, linear gradient from 10% acetonitrile to 95% acetonitrile.

| SMILES | pest or weed control at 100 ppm (Venturia inaequalis) | pest or weed control at 250 ppm (Cochliobolus miyabeanus) | pest or weed control at 500 ppm (Pyrenophora teres) | pest or weed control at 100 ppm (Alternaria solani) | pest or weed control at 250 ppm (Rhizoctonia solani) | pest or weed control at 250 ppm (Pyricularia oryzae) | pest or weed control at 500 ppm (Leptosphaeria nodorum) | chromatographic logP [1] | pest or weed control at 500 ppm (Sphaerotheca fuliginea) | chromatographic logP [2] |
| --- | --- | --- | --- | --- | --- | --- | --- | --- | --- | --- |
| CCCSc1cccc(Nc2ncc(Br)c(NC3CCC3)n2)c1 [Example 57] | ≥ 70% | ≥ 80% | ≥ 70% | ≥ 70% | ≥ 80% | ≥ 80% | ≥ 70% | 3.96 | ≥ 70% | – |
| CCSc1cccc(Nc2ncc(C(F)(F)F)c(NC3CC3)n2)c1 [Example 101] | – | ≥ 80% | ≥ 70% | – | ≥ 80% | ≥ 80% | ≥ 70% | 3.95 | ≥ 70% | 4.21 |
| CCS(=O)(=O)C(C)c1cccc(Nc2ncc(Cl)c(NC3CCC3)n2)c1 (stereo not shown) [Example 77] | ≥ 70% | ≥ 80% | ≥ 70% | ≥ 70% | ≥ 80% | ≥ 80% | ≥ 70% | 1.9 | ≥ 70% | 2.98 |
| CCC[S+]([O-])c1cccc(Nc2ncc(Cl)c(NC3CCC3)n2)c1 (stereo not shown) [Example 100] | ≥ 70% | ≥ 80% | – | ≥ 70% | ≥ 80% | ≥ 80% | ≥ 70% | 2.09 | – | – |
| CC[S+]([O-])c1cccc(Nc2ncc(C(F)(F)F)c(NC3CC3)n2)c1 (stereo not shown) [Example 117] | – | ≥ 80% | ≥ 70% | – | ≥ 80% | ≥ 80% | ≥ 70% | 2.2 | ≥ 70% | 2.46 |
| CCCCSc1cccc(Nc2ncc(Cl)c(NC3CCC3)n2)c1 [Example 106] | ≥ 70% | ≥ 80% | – | ≥ 70% | ≥ 80% | ≥ 80% | ≥ 70% | 4.28 | – | 5.13 |
| CCC[S+]([O-])c1cccc(Nc2ncc(Br)c(NC3CC3)n2)c1 (stereo not shown) [Example 102] | – | ≥ 80% | ≥ 70% | – | ≥ 80% | ≥ 80% | ≥ 70% | 1.04 | – | 2.5 |
| COCc1cccc(Nc2ncc(Cl)c(NC(C)C)n2)c1 [Example 26] | ≥ 70% | ≥ 80% | – | ≥ 70% | ≥ 80% | ≥ 80% | ≥ 70% | 1.76 | – | – |
| COC(C)c1cccc(Nc2ncc(C(F)(F)F)c(NC3CCC3)n2)c1 (stereo not shown) [Example 19] | – | ≥ 80% | ≥ 70% | – | ≥ 80% | ≥ 80% | ≥ 70% | 3.69 | – | – |
| CCOCCOc1cccc(Nc2ncc(Cl)c(NC3CC3)n2)c1 [Example 93] | ≥ 70% | ≥ 80% | ≥ 70% | ≥ 70% | – | ≥ 80% | ≥ 70% | 2.13 | ≥ 70% | 3.3 |
| COC(C)c1cccc(Nc2ncc(Cl)c(NC(C)C)n2)c1 (stereo not shown) [Example 129] | ≥ 70% | ≥ 80% | – | ≥ 70% | ≥ 80% | ≥ 80% | ≥ 70% | 2.02 | ≥ 70% | 3.67 |
